Laboratory results taken from patent US12077503B2, “Substituted cyclic amides and their use as herbicides” (FMC CORPORATION, priority 2015, dated 2024).

Tests used:
Assay type in all cases: in vivo
[1] = system: ryegrass, Italian (Italian ryegrass, Lolium multiflorum); assay: Test A preemergence; details: Lolium multiflorum, pre-emergence, 240 h, Preemergence
In short: (§1)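 Each rating is a visual injury score from 0 to 100 given about 10 d after treatment, judged against untreated controls kept alongside in the greenhouse. In loam soil–sand blend, seeds got a preemergence directed soil spray, while postemergence plants were 2 to 10 cm tall at spraying.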

Kochia (Kochia scoparia) [2] = assay: Test A preemergence; details: Bassia scoparia, pre-emergence, 240 h, Preemergence
In short: as §1

[3] = system: giant foxtail (Setaria faberii); assay: Test A preemergence; details: Setaria faberi, pre-emergence, 240 h, Preemergence
In short: as §1

[4] = system: barnyardgrass (Echinochloa crus-galli); assay: Test A preemergence; details: Echinochloa crus-galli, pre-emergence, 240 h, Preemergence
In short: as §1

[5] = system: pigweed (Amaranthus retroflexus); assay: Test A preemergence; details: Amaranthus retroflexus, pre-emergence, 240 h, Preemergence
[6] = system: ragweed (common ragweed, Ambrosia elatior); assay: Test A preemergence; details: Ambrosia artemisiifolia, pre-emergence, 240 h, Preemergence
In short: as §1

rice (Oryra sativa) = assay: Test B flooded paddy test; details: Oryza sativa, 360 h, Flood, 250 g ai/ha; visually evaluated after 13 to 15 d; read-out: Plant response rating, Rice (0 to 100 scale where 0 is no effect and 100 is complete control)
In short: (§2)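 Rating scale 0–100 (visual, vs untreated controls) after a 13–15 d greenhouse period; application to the flood layer, 3 cm above soil and maintained; plants at 2-leaf stage when treated.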

[7] = system: ducksalad (Heteranthera limosa); assay: Test B flooded paddy test; details: Heteranthera limosa, 360 h, Flood, 250 g ai/ha; visually evaluated after 13 to 15 d; read-out: Plant response rating, Ducksalad (0 to 100 scale where 0 is no effect and 100 is complete control)
In short: as §2

[8] = system: sedge, umbrella (small-flower umbrella sedge, Cyperus difformis); assay: Test B flooded paddy test; details: Cyperus difformis, 360 h, Flood, 250 g ai/ha; visually evaluated after 13 to 15 d; read-out: Plant response rating, Sedge, Umbrella (0 to 100 scale where 0 is no effect and 100 is complete control)
In short: as §2

[9] = system: barnyardgrass (Echinochloa crus-galli); assay: Test B flooded paddy test; details: Echinochloa crus-galli, 360 h, Flood, 250 g ai/ha; visually evaluated after 13 to 15 d; read-out: Plant response rating, Barnyardgrass (0 to 100 scale where 0 is no effect and 100 is complete control)
In short: as §2

[10] = system: blackgrass (Alopecurus myosuroides); assay: Test A postemergence; details: Alopecurus myosuroides, post-emergence, 240 h, Postemergence, read-out: Blackgrass plant response rating (0 to 100 scale)
In short: as §1

[11] = system: ryegrass, Italian (Italian ryegrass, Lolium multiflorum); assay: Test A postemergence; details: Lolium multiflorum, post-emergence, 240 h, Postemergence, read-out: Ryegrass, Italian plant response rating (0 to 100 scale)
In short: as §1

[12] = system: Galium (catchweed bedstraw, Galium aparine); assay: Test A postemergence; details: Galium, post-emergence, 240 h, Postemergence, read-out: Galium plant response rating (0 to 100 scale)
In short: as §1

Kochia (Kochia scoparia) [13] = assay: Test A postemergence; details: Bassia scoparia, post-emergence, 240 h, Postemergence, read-out: Kochia plant response rating (0 to 100 scale)
In short: as §1

[14] = system: giant foxtail (Setaria faberii); assay: Test A postemergence; details: Setaria faberi, post-emergence, 240 h, Postemergence, read-out: Foxtail, Giant plant response rating (0 to 100 scale)
In short: as §1

[15] = system: barnyardgrass (Echinochloa crus-galli); assay: Test A postemergence; details: Echinochloa crus-galli, post-emergence, 240 h, Postemergence
In short: as §1

[16] = system: pigweed (Amaranthus retroflexus); assay: Test A postemergence; details: Amaranthus retroflexus, post-emergence, 240 h, Postemergence, read-out: Pigweed plant response rating (0 to 100 scale)
In short: as §1

[17] = system: ragweed (common ragweed, Ambrosia elatior); assay: Test A postemergence; details: Ambrosia artemisiifolia, post-emergence, 240 h, Postemergence, read-out: Ragweed plant response rating (0 to 100 scale)
In short: as §1

[18] = system: wheat (Triticum aestivum); assay: Test A postemergence; details: Triticum aestivum, post-emergence, 240 h, Postemergence, read-out: Wheat plant response rating (0 to 100 scale)
In short: as §1

corn (Zea mays) = assay: Test A postemergence; details: Zea mays, post-emergence, 240 h, Postemergence, read-out: Corn plant response rating (0 to 100 scale)
In short: as §1

[19] = 125 g ai/ha, visual rating about 10 d after treatment
[20] = 31 g ai/ha, 0 is no effect, 100 is complete control

## COc1c([C@H]2CN(C)C(=O)[C@@H]2C(=O)Nc2ccccc2F)cccc1C(F)(F)F [Compound 1338]
[1]; 31 g ai/ha, 0 to 100 scale where 0 is no effect and 100 is complete control, read-out: Ryegrass, Italian plant response rating
  pest or weed control at 31 g/ha: 0%
[1]; 125 g ai/ha, 0 to 100 scale (0 no effect, 100 complete control), read-out: Plant response rating, Ryegrass, Italian
  pest or weed control at 125 g/ha: 0%
Kochia (Kochia scoparia) [2]; 31 g ai/ha, 0 to 100 scale where 0 is no effect and 100 is complete control, read-out: Kochia plant response rating
  pest or weed control at 31 g/ha: 0%
Kochia (Kochia scoparia) [2]; 125 g ai/ha, 0 to 100 scale (0 no effect, 100 complete control), read-out: Plant response rating, Kochia
  pest or weed control at 125 g/ha: 0%
[3]; 31 g ai/ha, 0 to 100 scale where 0 is no effect and 100 is complete control, read-out: Foxtail, Giant plant response rating
  pest or weed control at 31 g/ha: 80%
[3]; 125 g ai/ha, 0 to 100 scale (0 no effect, 100 complete control), read-out: Plant response rating, Foxtail, Giant
  pest or weed control at 125 g/ha: 90%
[4]; 31 g ai/ha, 0 to 100 scale where 0 is no effect and 100 is complete control, read-out: Barnyardgrass plant response rating
  pest or weed control at 31 g/ha: 90%
[4]; 125 g ai/ha, 0 to 100 scale (0 no effect, 100 complete control), read-out: Plant response rating, Barnyardgrass
  pest or weed control at 125 g/ha: 100%
[5]; 31 g ai/ha, 0 to 100 scale where 0 is no effect and 100 is complete control, read-out: Pigweed plant response rating
  pest or weed control at 31 g/ha: 0%
[5]; 125 g ai/ha, 0 to 100 scale (0 no effect, 100 complete control), read-out: Plant response rating, Pigweed
  pest or weed control at 125 g/ha: 0%
[6]; 31 g ai/ha, 0 to 100 scale where 0 is no effect and 100 is complete control, read-out: Ragweed plant response rating
  pest or weed control at 31 g/ha: 0%
[6]; 125 g ai/ha, 0 to 100 scale (0 no effect, 100 complete control), read-out: Plant response rating, Ragweed
  pest or weed control at 125 g/ha: 0%
Rice (Oryra sativa)
  pest or weed control at 250 g/ha: 25%
[7]
  pest or weed control at 250 g/ha: 100%
[8]
  pest or weed control at 250 g/ha: 0%
[9]
  pest or weed control at 250 g/ha: 90%
[10]; [19]
  pest or weed control at 125 g/ha: 0%
[10]; [20]
  pest or weed control at 31 g/ha: 0%
[11]; [19]
  pest or weed control at 125 g/ha: 0%
[11]; [20]
  pest or weed control at 31 g/ha: 0%
[12]; [19]
  pest or weed control at 125 g/ha: 30%
[12]; [20]
  pest or weed control at 31 g/ha: 0%
Kochia (Kochia scoparia) [13]; [19]
  pest or weed control at 125 g/ha: 0%
Kochia (Kochia scoparia) [13]; [20]
  pest or weed control at 31 g/ha: 0%
[14]; [19]
  pest or weed control at 125 g/ha: 80%
[14]; [20]
  pest or weed control at 31 g/ha: 50%
[15]; 125 g ai/ha, visual rating about 10 d after treatment, read-out: Barnyardgrass plant response rating (0 to 100 scale, 0 no effect, 100 complete control)
  pest or weed control at 125 g/ha: 80%
[15]; 31 g ai/ha, 0 is no effect, 100 is complete control, read-out: Barnyardgrass plant response rating (0 to 100 scale)
  pest or weed control at 31 g/ha: 70%
[16]; [19]
  pest or weed control at 125 g/ha: 0%
[16]; [20]
  pest or weed control at 31 g/ha: 0%
[17]; [19]
  pest or weed control at 125 g/ha: 0%
[17]; [20]
  pest or weed control at 31 g/ha: 0%
[18]; [19]
  plant injury at 125 g/ha: 0%
[18]; [20]
  plant injury at 31 g/ha: 0%
Corn (Zea mays); [19]
  plant injury at 125 g/ha: 0%
Corn (Zea mays); [20]
  plant injury at 31 g/ha: 0%
